Data as given in patent publication US20100104509A1, “HUMAN ANTIBODIES THAT BIND CD19 AND USES THEREOF” (Medarex, Inc., priority 2006, published 2010).

System: B-cells (CD22) in human whole blood
Experiment: Whole blood B-cell depletion assay
Assay type: cell-based
Details: overnight 37° C.; for % Change: B-cell depletion vs non-treated group
Description: To determine if the anti-CD19 antibodies were capable of depleting B-cells, a whole blood B-cell depletion assay was set up.
Human whole blood was purchased from AllCells Inc. (Berkeley, Calif.) and delivered the same day at room temperature. Two ml of whole blood was incubated in the absence or presence of […] of the indicated antibodies, or PBS as the untreated group. The blood-antibody mixture was incubated overnight at 37° C. with 5% CO2. On the day of the experiment, the blood was lysed twice with RBC lysis buffer at 1:10 ratio by incubating for 10 minutes followed by centrifugation. After the second spin, the cell pellets were washed once with FACS buffer (PBS plus Calcium and Magnesium with 2% FBS and 20% versene), and followed by FAGS staining with anti-CD3 antibody (Becton Dickinson) as the T-Cell makers and anti-CD22 antibody (Becton Dickinson) as a B-cell makers using standard Flow cytometry protocols. Cells were incubated on ice for 20 min prior to the final washes and resuspended in […] propidium iodide solution (Sigma) in FACS buffer. Data was collected by flow cytometry using a FASCalibur system and CellQuest software by Becton Dickinson, and analyzed via FlowJo software using lymphocyte size gating. Percent change was calculated by determining the % positive B-cells in the non-treated group minus the % positive B-cells in the antibody treated group divided by % positive B-cells in the non treated group times 100. From a healthy blood donor, 8.7% B-cells remained in the blood following an overnight incubation (no antibody). Incubating whole blood with […] of positive control Rituxan led to a 46% depletion in the number of B-cells when compared to the untreated, no antibody group.

## Rituxan: positive control in the whole blood B-cell depletion assay [reference compound]
  % Change: 46%
Listed as Rituxan ®
  % Change: 46.3%
1-30 mg/ml antibody
  % Positive (CD22): 4.7%
